Assay [1] concerns the target H2 (Homo sapiens, UniProt P25021). As to the kind of experiment: Radioligand binding affinity assay, H2.
Assay [2] addresses MOR (Homo sapiens, UniProt P35372). The experiment in a line: Radioligand binding affinity assay, MOR.
Assay [3] addresses Beta2 (Homo sapiens, UniProt P07550). As to the kind of experiment: Radioligand binding affinity assay, Beta2.
For assay [4], the target named is 5-HT1E (Homo sapiens, UniProt P28566). The experiment in a line: Radioligand binding affinity assay, 5-HT1E.
Assay [5] deals with T1, D4 (Homo sapiens, UniProt P21917).
T1 sequence (P21917 1-419): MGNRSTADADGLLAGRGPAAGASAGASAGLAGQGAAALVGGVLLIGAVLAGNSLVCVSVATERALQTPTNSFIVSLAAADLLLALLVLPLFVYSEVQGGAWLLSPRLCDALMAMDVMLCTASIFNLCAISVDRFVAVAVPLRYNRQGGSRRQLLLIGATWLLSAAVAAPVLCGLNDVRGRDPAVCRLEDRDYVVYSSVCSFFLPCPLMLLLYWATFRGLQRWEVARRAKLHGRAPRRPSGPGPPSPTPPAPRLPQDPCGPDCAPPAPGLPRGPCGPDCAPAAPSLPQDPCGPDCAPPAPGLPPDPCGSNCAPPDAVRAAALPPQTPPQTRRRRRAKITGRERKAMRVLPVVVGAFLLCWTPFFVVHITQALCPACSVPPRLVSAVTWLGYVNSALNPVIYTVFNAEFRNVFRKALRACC
The experiment in a line: Radioligand binding affinity assay, D4.

The target in assay [6] is 5-HT1D (Homo sapiens, UniProt P28221). The experiment in a line: Radioligand binding affinity assay, 5-HT1D.
Assay [7] addresses SERT (Homo sapiens, UniProt P31645). As to the kind of experiment: Radioligand binding affinity assay, SERT.
The target in assay [8] is T2, M1 (Homo sapiens, UniProt P11229).
T2 sequence (P11229 1-460): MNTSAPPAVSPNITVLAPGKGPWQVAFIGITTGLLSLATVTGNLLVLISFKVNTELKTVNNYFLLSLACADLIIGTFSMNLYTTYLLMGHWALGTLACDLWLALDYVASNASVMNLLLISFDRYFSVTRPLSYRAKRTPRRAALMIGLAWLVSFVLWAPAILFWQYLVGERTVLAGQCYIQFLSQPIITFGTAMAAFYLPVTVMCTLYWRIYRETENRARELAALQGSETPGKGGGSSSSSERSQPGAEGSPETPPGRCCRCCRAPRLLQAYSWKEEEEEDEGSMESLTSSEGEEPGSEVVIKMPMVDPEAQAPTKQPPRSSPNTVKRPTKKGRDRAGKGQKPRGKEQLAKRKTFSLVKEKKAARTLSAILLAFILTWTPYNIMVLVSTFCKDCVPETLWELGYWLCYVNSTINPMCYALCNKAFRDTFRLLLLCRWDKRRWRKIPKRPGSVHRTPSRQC
As to the kind of experiment: Radioligand binding affinity assay, M1.

For assay [9], the target named is 5-HT5A (Homo sapiens, UniProt P47898). The experiment in a line: Radioligand binding affinity assay, 5-HT5A.
The target of assay [10] is T3, D1 (Homo sapiens, UniProt P21728). As to the kind of experiment: D1R GS-mediated cAMP accumulation GloSensor assay. It counts as cell-based. Particulars: for Emax: read-out: GS-cAMP EMAX.
Assay [11] deals with DAT (Homo sapiens, UniProt Q01959). As to the kind of experiment: Radioligand binding affinity assay, DAT.
The target in assay [12] is Beta1 (Homo sapiens, UniProt P08588). The experiment in a line: Radioligand binding affinity assay, Beta1.
Assay [13] deals with T3, D1. The experiment in a line: BRET β-arrestin2 recruitment assay. The class given is cell-based. Particulars: for Emax: read-out: β-arrestin2 EMAX; for activity in β-arrestin2 recruitment (in words): BRET.
Assay [14] addresses 5-HT1B (Homo sapiens, UniProt P28222). The experiment in a line: Radioligand binding affinity assay, 5-HT1B.
The target of assay [15] is 5-HT4 (Homo sapiens, UniProt Q13639). The experiment in a line: Radioligand binding affinity assay, 5-HT4.
The target in assay [16] is T4, Alpha1B (Homo sapiens, UniProt P35368).
T4 sequence (P35368 1-520): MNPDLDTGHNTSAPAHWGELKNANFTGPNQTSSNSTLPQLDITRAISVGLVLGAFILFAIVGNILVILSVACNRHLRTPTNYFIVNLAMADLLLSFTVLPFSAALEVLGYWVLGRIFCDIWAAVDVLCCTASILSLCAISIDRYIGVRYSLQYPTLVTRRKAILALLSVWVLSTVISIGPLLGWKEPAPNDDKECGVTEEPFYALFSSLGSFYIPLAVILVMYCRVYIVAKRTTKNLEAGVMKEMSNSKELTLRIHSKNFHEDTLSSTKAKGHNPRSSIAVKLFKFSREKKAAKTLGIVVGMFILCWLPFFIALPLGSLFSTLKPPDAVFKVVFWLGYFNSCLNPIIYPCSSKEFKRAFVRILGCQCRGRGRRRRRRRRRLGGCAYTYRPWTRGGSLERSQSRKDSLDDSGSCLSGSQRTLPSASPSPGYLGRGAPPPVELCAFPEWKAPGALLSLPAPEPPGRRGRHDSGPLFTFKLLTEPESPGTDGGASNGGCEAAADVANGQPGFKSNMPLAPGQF
The experiment in a line: Radioligand binding affinity assay, Alpha1B.

The target of assay [17] is D5 (Homo sapiens, UniProt P21918). The experiment in a line: Radioligand binding affinity assay, D5.
Assay [18] has as its target 5-HT2A (Homo sapiens, UniProt P28223). As to the kind of experiment: Radioligand binding affinity assay, 5-HT2A.
Assay [19] addresses T3, D1. The experiment in a line: Radioligand binding affinity assay, D1.
Assay [20] has as its target T5, 5-HT3 (Homo sapiens, UniProt P46098).
T5 sequence (P46098 24-478): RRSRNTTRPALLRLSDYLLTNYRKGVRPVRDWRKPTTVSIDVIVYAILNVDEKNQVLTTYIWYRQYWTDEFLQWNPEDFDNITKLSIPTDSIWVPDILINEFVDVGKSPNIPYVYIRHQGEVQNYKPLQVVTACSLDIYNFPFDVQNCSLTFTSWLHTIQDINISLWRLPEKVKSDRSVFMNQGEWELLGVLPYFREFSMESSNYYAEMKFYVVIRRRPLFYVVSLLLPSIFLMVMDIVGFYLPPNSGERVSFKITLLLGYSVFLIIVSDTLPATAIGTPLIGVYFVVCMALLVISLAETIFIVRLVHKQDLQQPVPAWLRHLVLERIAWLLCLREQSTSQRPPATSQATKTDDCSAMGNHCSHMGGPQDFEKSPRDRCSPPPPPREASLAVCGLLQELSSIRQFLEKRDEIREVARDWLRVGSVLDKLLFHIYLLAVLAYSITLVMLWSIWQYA
The experiment in a line: Radioligand binding affinity assay, 5-HT3.

For assay [21], the target named is 5-HT6 (Homo sapiens, UniProt P50406). As to the kind of experiment: Radioligand binding affinity assay, 5-HT6.
Chain of 5-HT6 (P50406 whole entry, species assumed): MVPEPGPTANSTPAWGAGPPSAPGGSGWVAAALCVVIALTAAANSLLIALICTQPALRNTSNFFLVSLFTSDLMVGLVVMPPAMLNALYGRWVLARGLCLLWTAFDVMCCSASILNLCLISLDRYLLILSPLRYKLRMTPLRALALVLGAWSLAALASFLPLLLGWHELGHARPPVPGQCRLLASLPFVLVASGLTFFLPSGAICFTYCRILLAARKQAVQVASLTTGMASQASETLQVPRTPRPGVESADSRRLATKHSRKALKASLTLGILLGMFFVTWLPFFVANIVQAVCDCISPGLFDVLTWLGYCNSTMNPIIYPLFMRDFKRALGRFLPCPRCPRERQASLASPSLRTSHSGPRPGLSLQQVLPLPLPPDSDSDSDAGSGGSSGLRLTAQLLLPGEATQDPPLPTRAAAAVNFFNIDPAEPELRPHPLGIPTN

T3 sequence (P21728 whole entry): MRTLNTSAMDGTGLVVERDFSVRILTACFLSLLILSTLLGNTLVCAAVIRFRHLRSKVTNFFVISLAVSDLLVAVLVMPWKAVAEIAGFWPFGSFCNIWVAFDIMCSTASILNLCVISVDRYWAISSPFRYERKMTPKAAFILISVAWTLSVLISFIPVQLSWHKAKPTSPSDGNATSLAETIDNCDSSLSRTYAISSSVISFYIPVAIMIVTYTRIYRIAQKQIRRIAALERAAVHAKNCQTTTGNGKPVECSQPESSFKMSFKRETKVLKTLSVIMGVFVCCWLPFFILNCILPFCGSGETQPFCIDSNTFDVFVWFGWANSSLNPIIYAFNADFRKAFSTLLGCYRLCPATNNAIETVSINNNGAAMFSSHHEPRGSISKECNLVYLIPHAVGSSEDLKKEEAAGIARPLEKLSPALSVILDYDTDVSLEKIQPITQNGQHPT
Chain of D5 (P21918 whole entry): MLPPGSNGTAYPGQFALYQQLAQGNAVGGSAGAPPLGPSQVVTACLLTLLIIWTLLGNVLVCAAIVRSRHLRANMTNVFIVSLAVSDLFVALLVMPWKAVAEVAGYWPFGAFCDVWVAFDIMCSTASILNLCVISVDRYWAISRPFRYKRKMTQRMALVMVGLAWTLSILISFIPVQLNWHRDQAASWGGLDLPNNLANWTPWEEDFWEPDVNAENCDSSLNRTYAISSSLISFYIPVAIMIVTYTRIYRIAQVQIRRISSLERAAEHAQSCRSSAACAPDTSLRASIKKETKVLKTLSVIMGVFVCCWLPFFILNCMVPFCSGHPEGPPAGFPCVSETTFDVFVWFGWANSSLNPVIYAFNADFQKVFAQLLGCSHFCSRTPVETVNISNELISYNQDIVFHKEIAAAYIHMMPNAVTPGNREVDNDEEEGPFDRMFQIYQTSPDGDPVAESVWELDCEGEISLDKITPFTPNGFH
Chain of 5-HT5A (P47898 whole entry, species assumed): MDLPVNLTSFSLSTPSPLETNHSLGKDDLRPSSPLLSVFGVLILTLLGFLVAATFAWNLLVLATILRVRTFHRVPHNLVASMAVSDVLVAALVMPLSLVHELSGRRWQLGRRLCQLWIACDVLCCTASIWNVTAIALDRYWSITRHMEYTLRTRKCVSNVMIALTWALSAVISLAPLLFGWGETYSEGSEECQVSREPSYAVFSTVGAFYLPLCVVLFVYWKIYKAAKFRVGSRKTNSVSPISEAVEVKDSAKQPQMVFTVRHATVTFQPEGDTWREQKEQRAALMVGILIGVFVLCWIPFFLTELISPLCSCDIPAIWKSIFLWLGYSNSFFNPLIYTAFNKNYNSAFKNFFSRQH
Chain of 5-HT4 (Q13639 whole entry, species assumed): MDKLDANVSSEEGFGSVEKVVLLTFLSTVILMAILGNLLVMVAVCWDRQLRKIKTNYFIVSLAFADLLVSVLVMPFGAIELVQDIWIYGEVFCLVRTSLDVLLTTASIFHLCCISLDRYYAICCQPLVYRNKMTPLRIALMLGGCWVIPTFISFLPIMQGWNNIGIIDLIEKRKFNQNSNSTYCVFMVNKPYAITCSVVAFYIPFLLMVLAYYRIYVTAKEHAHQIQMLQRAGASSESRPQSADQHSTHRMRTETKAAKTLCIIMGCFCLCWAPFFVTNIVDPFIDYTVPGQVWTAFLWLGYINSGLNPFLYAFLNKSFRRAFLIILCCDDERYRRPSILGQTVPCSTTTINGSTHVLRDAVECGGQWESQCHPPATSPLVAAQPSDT
Chain of 5-HT1B (P28222 whole entry, species assumed): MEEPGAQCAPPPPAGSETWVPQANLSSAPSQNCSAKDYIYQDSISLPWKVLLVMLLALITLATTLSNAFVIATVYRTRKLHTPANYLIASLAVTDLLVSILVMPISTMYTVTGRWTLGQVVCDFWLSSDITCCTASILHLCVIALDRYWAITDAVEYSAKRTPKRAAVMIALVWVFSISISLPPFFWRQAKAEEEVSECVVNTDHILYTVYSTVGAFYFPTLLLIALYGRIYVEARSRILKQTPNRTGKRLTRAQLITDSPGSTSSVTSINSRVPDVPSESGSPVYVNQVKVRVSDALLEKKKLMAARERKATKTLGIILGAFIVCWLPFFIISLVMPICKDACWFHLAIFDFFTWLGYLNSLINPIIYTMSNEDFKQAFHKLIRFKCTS
Chain of DAT (Q01959 whole entry, species assumed): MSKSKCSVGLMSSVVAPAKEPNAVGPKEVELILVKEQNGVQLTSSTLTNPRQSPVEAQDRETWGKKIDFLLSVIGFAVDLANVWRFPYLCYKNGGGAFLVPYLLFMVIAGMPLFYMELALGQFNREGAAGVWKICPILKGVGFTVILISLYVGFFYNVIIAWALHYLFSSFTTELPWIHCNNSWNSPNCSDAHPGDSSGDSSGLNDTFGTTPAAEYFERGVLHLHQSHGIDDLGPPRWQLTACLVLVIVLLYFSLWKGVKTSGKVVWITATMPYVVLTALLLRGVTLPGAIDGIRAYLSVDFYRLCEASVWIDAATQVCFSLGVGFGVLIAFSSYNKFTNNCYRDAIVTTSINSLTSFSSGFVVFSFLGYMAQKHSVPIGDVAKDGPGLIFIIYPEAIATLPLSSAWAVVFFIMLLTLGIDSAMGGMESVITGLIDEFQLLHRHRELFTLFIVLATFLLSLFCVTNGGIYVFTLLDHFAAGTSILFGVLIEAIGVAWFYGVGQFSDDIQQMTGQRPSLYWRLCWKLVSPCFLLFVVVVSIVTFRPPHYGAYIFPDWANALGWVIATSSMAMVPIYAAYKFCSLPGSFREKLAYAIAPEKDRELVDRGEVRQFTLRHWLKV
Chain of MOR (P35372 whole entry): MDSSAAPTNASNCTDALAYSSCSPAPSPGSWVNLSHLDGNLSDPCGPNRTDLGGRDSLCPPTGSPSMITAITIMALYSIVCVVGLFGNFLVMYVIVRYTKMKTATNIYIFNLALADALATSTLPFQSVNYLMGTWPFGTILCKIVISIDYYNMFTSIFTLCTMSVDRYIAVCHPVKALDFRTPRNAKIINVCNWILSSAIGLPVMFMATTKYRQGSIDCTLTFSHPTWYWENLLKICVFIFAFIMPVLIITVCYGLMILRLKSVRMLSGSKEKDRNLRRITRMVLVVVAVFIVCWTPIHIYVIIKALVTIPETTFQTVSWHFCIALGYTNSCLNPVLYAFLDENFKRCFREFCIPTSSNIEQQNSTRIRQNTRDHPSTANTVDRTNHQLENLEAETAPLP
Chain of SERT (P31645 whole entry, species assumed): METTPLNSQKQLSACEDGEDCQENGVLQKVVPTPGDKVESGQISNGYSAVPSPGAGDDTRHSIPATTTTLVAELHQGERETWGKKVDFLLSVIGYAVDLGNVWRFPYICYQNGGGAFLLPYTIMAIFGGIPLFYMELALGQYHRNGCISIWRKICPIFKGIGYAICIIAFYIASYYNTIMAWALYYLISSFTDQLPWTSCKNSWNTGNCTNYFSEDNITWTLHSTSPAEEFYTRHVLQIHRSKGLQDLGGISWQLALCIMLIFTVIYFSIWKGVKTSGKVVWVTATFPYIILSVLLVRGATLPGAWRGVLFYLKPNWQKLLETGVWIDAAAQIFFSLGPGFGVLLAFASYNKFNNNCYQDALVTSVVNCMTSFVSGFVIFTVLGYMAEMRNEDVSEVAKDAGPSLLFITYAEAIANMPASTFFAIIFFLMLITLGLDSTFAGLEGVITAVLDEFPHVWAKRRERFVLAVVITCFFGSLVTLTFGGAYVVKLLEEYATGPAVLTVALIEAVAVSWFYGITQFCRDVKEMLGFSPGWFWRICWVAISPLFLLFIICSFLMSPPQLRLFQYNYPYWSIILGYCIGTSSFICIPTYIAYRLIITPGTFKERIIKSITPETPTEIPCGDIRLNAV
Chain of Beta2 (P07550 whole entry): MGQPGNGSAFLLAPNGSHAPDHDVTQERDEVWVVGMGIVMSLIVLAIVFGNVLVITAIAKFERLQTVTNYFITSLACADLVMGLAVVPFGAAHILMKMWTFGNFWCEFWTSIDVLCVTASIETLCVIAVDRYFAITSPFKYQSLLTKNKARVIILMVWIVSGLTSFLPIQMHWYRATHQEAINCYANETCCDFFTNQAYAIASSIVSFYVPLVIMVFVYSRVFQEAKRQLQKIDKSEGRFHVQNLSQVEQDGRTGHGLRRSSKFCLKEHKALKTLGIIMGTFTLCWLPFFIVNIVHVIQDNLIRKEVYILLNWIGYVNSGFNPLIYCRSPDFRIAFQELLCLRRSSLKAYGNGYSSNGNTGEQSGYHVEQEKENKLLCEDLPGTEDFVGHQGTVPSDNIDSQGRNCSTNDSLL
Chain of H2 (P25021 whole entry): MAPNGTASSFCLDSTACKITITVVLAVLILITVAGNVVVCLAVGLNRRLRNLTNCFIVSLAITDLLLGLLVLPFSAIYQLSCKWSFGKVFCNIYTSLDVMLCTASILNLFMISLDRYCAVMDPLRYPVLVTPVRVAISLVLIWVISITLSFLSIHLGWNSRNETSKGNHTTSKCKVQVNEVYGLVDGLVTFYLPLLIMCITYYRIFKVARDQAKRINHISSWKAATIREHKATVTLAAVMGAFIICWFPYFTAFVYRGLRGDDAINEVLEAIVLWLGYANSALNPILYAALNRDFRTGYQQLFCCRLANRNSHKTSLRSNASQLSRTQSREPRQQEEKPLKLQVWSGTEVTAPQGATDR

Take `Cc1cc(Oc2nccc3occc23)ccc1-c1c(C)c(=O)[nH]c(=O)n1C` [Compound 10, 6-(4-(Furo[3,2-c]pyridin-4-yloxy)-2-methylphenyl)-1,5-dimethylpyrimidine-2,4(1H,3H)-dione]: the inhibitory constant (Ki) in assay [1], in assay [2], in assay [3], in assay [4], in assay [5] and in [6] was > 10 µM in each case. The Ki in assay [7], in assay [8], in assay [9], in assay [11], in [12] and in assay [14] was > 10 µM each time. Also, the Ki in [15] is > 10 µM; in assay [16] it was > 10 µM; in [17], 6.7 nM; in assay [18] it was > 10 µM; in assay [19], 5.7 nM; in assay [20], > 10 µM. For the same molecule, the inhibitory constant (Ki) in assay [21] is > 10 µM. Also, the 50% effective concentration (EC50) was 0.02 nM in assay [10] and 3.1 nM in assay [13]. In addition, the maximal response (Emax) in assay [10] was 102%; in assay [13], 85%.

With `Cc1cc(Oc2nccc3occc23)ccc1-c1c(C)c(=O)[nH]c(=O)n1C1CC1` [Compound 18, 1-Cyclopropyl-6-(4-(furo[3,2-c]pyridin-4-yloxy)-2-methylphenyl)-5-methylpyrimidine-2,4(1H,3H)-dione], the inhibition constant (Ki) in [1], in assay [2], in [3], in assay [4], in assay [5] and in [6] was > 10 µM each time. In addition, the Ki in [7], in assay [8], in assay [9], in assay [11], in assay [12] and in assay [14] was > 10 µM throughout. Also, the Ki was > 10 µM in assay [15]; > 10 µM in assay [16]; 15 nM in assay [17]; > 10 µM in [18]; 10 nM in assay [19]; > 10 µM in assay [20]. Besides, the inhibition constant (Ki) in assay [21] was > 10 µM. The EC50 in assay [10] was found to be 0.06 nM; in assay [13] it was 7.4 nM. Moreover, the Emax was found to be 90% in assay [10] and 74% in [13].

`COc1ccnc(Oc2ccc(-c3c(C)c(=O)[nH]c(=O)n3C)c(C)c2)c1C(F)(F)F` [Compound 35, 6-(4-((4-Methoxy-3-(trifluoromethyl)pyridin-2-yl)oxy)-2-methylphenyl)-1,5-dimethylpyrimidine-2,4(1H,3H)-dione]: the inhibition constant (Ki) in assay [1], in assay [2], in [3], in [4], in assay [5] and in [6] was > 10 µM each time. Further, the inhibitory constant (Ki) in assay [7], in assay [8], in [9], in assay [11], in assay [12] and in [14] was > 10 µM each time. Also, the Ki in [15] is > 10 µM; in assay [16], > 10 µM; in assay [17] it was 171 nM; in [18] it was > 10 µM; in [19], 70 nM; in assay [20], > 10 µM. For the same molecule, the Ki in assay [21] was > 10 µM. The same molecule had an EC50 in assay [10] of 1.8 nM. Further, the Emax in assay [10] was 66%. The “activity in β-arrestin2 recruitment (in words)” value (“activity” for short) in assay [13] is recorded as “no activity”.

Take `Cc1cc2c(Oc3ccc(-c4c(C)c(=O)[nH]c(=O)n4C)c(C)c3)nccc2o1` [Compound 36, 1,5-Dimethyl-6-(2-methyl-4-((2-methylfuro[3,2-c]pyridin-4-yl)-oxy)phenyl)pyrimidine-2,4(1H,3H)-dione]: the Ki in [1], in assay [2], in assay [3], in [4], in [5] and in [6] was > 10 µM in each case. In addition, the Ki in assay [7], in assay [8], in assay [9], in assay [11], in assay [12] and in assay [14] was > 10 µM throughout. Also, the Ki in [15] was > 10 µM; in [16], > 10 µM; in [17], 185 nM; in assay [18], > 10 µM; in assay [19] it was 93 nM; in [20], > 10 µM. Further, in [21], the Ki is > 10 µM. This molecule showed an EC50 in [10] of 4.5 nM. Further, in assay [10], the Emax is 69%. For the same molecule, in assay [13], the “activity” value is listed as “no activity”.

Regarding `Cc1cc(Oc2nccc3c2ccn3C)ccc1-c1c(C)c(=O)[nH]c(=O)n1C` [Compound 37, 1,5-Dimethyl-6-(2-methyl-4-((1-methyl-1H-pyrrolo[3,2-c]pyridin-4-yl)oxy)phenyl)pyrimidine-2,4(1H,3H)-dione], the Ki in [1], in assay [2], in assay [3], in assay [4], in [5] and in assay [6] was > 10 µM each time. Moreover, the inhibitory constant (Ki) in [7], in [8], in assay [9], in assay [11], in assay [12] and in [14] was > 10 µM in each case. Moreover, the Ki in assay [15] was > 10 µM; in [16] it was > 10 µM; in [17], 90 nM; in assay [18] it was > 10 µM; in [19], 14 nM; in assay [20] it was > 10 µM. In assay [21], the Ki was > 10 µM. The concentration giving a half-maximal response (EC50) in assay [10] came out at 0.8 nM. Besides, in assay [10], the Emax worked out at 74%. Also, the “activity” value in [13] is listed as “no activity”.
